Each molecule was assayed against Proto-oncogene tyrosine-protein kinase Src (Homo sapiens, UniProt P12931) (assay: Inhibitory activity against SH2 domain of human p60 c-Src tyrosine kinase using surface plasmon resonance (SPR) assay.).
Sequence of Proto-oncogene tyrosine-protein kinase Src (P12931 2-536 limits assumed): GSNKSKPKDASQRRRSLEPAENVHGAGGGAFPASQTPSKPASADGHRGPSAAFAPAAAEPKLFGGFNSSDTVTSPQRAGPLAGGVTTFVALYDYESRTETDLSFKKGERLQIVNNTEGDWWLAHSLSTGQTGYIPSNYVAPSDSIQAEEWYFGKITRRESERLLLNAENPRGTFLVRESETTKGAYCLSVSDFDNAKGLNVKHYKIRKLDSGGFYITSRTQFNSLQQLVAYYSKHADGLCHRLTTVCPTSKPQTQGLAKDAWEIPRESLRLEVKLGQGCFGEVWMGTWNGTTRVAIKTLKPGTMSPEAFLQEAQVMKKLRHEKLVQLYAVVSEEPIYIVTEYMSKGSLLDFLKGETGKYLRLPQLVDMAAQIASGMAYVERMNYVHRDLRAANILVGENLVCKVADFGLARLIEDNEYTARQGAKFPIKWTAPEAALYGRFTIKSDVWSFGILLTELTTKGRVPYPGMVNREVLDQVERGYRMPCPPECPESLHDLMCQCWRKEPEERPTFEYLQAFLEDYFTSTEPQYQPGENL
For `O=C(O)CC(O)(CC(=O)O)C(=O)O` [CITRIC ACID], the IC50 was greater than 40 mM.
`O=P(O)(O)O` [PHOSPHORIC ACID] was tested, and the IC50 was greater than 40 mM.
`O=[N+]([O-])c1cc2c(cc1C(O)P(=O)(O)O)OCO2` (stereo not drawn) was tested, and the IC50 was 0.3 mM.

— ChEMBL document CHEMBL1145907, “Requirements for specific binding of low affinity inhibitor fragments to the SH2 domain of (pp60)Src are identical to those for high affinity binding of full length inhibitors” (J Med Chem, 2003)
